From paper PMC6099768, “Application of Docking Analysis in the Prediction and Biological Evaluation of the Lipoxygenase Inhibitory Action of Thiazolyl Derivatives of Mycophenolic Acid” (Molecules : A Journal of Synthetic Chemistry and Natural …, 2018) come the findings set out here.

For this assay, the target named is T1, soybean LOX type 1b (sLOX-1) (Glycine max, UniProt P08170).
T1 sequence (P08170 1-839): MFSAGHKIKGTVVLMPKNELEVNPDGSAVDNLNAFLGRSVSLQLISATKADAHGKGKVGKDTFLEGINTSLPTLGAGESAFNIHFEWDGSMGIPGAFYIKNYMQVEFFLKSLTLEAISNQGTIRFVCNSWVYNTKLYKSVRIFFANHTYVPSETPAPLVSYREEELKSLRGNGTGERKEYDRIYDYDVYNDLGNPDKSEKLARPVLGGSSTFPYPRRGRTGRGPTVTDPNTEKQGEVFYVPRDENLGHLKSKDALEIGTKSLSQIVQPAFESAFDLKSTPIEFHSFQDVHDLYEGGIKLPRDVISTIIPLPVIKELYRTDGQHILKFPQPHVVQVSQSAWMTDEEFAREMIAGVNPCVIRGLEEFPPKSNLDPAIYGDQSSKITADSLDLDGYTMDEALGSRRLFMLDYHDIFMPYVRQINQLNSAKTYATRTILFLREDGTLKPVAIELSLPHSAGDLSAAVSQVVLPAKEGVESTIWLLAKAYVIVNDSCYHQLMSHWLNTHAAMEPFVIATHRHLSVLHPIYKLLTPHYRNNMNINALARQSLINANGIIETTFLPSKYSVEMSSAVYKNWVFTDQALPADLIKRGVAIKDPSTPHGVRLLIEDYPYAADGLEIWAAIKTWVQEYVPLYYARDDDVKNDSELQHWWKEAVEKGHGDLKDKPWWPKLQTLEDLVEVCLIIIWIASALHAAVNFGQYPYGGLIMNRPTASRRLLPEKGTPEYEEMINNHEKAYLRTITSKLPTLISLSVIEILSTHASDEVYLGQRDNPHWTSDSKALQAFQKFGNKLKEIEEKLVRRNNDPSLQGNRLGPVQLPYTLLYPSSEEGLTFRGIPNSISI
Description: Soybean lipoxygenase inhibition study in vitro. Format: biochemical. As to the method:
For the evaluation of lipoxygenase inhibition soybean LOX type 1b was used as reported previously. The selection was based on the structural and functional similarity of sLOX-1 with mammalian LOX [36, 50, 51, 52] which makes it the most commonly used LOX enzyme in drug screening, followed by sLOX-3 [40].
The assay conditions were as previously reported. Different compound concentrations were used for the calculation of IC50 values. The experiments were performed in triplicate.

Setting [1] is: printed as negative values (−log of IC50 in µM), read-out: pIC50 (converted).
Where [2] appears, read: soybean LOX type 1b, means of three determinations, deviation <10% of the mean, read-out: IC50.
The mark [3] stands for this setting: Table 6, unit inferred, same values as Table 5, read-out: IC50.

Read-outs that look alike come from different tables or passages of the source.

As for `COc1c(C)c2c(c(O)c1C/C=C(\C)CCC(=O)Nc1nccs1)C(=O)OC2` [Compound 1, (E)-6-(4-Hydroxy-6-methoxy-7-methyl-3-oxo-1,3-dihydroisobenzofuran-5-yl)-4-methyl-N-(thiazol-2-yl)hex-4-enamide], the IC50 under setting [1] is 26.2 µM and the IC50 under setting [2] turned out to be 26.3 µM.

As for `COc1c(C)c2c(c(O)c1C/C=C(\C)CCC(=O)Nc1ncc(C)s1)C(=O)OC2` [Compound 2, (E)-6-(4-Hydroxy-6-methoxy-7-methyl-3-oxo-1,3-dihydroisobenzofuran-5-yl)-4-methyl-N-(5-methylthiazol-2-yl)hex-4-enamide], the IC50 is 22.5 µM under setting [3], 22.5 µM under setting [1] and 22.5 µM under setting [2].

In the case of `COc1c(C)c2c(c(O)c1C/C=C(\C)CCC(=O)Nc1nc(C)c(C)s1)C(=O)OC2` [Compound 3, (E)-N-(4,5-Dimethylthiazol-2-yl)-6-(4-hydroxy-6-methoxy-7-methyl-3-oxo-1,3-dihydroisobenzofuran-5-yl)-4-methylhex-4-enamide], the IC50 is, setting by setting: under setting [1], 43.8 µM; under setting [2], 43.7 µM.

Regarding `COc1c(C)c2c(c(O)c1C/C=C(\C)CCC(=O)Nc1nc(C)cs1)C(=O)OC2` [Compound 4, (E)-6-(4-Hydroxy-6-methoxy-7-methyl-3-oxo-1,3-dihydroisobenzofuran-5-yl)-4-methyl-N-(4-methylthiazol-2-yl)hex-4-enamide], the IC50 runs as follows: under setting [3], 31.2 µM; under setting [1], 31.3 µM; under setting [2], 31.2 µM.

For the compound `CCOC(=O)c1sc(NC(=O)CC/C(C)=C/Cc2c(O)c3c(c(C)c2OC)COC3=O)nc1C` [Compound 5, (E)-Ethyl-2-(6-(4-hydroxy-6-methoxy-7-methyl-3-oxo-1,3-dihydroisobenzofuran-5-yl)-4-methylhex-4-enamido)-4-methylthiazole-5-carboxylate], the IC50 is, setting by setting: under setting [3], 22.5 µM; under setting [2], 22.5 µM.

As for `CCOC(=O)Cc1csc(NC(=O)CC/C(C)=C/Cc2c(O)c3c(c(C)c2OC)COC3=O)n1` [Compound 6, (E)-Ethyl-2-(2-(6-(4-hydroxy-6-methoxy-7-methyl-3-oxo-1,3-dihydroisobenzofuran-5-yl)-4-methylhex-4-enamido)thiazol-4-yl)acetate], the IC50 was 30 µM under setting [1] and 30 µM under setting [2].

Turning to `COc1c(C)c2c(c(O)c1C/C=C(\C)CCC(=O)Nc1nc(-c3ccncc3)cs1)C(=O)OC2` [Compound 7, (E)-6-(4-Hydroxy-6-methoxy-7-methyl-3-oxo-1,3-dihydroisobenzofuran-5-yl)-4-methyl-N-(4-(pyridin-4-yl)thiazol-2-yl)hex-4-enamide], the IC50 was 78.7 µM under setting [1] and 78.8 µM under setting [2].

As to `COc1c(C)c2c(c(O)c1C/C=C(\C)CCC(=O)Nc1nc(-c3cccnc3)cs1)C(=O)OC2` [Compound 8], the IC50 under setting [3] was found to be 90 µM, the IC50 under setting [1] was 89.9 µM and the IC50 under setting [2] stood at 90 µM.

With `COc1c(C)c2c(c(O)c1C/C=C(\C)CCC(=O)Nc1nc(-c3ccccn3)cs1)C(=O)OC2` [Compound 9, (E)-6-(4-Hydroxy-6-methoxy-7-methyl-3-oxo-1,3-dihydroisobenzofuran-5-yl)-4-methyl-N-(4-(pyridin-2-yl)thiazol-2-yl)hex-4-enamide], the IC50 is 2.5 µM under setting [3], 2.5 µM under setting [1] and 2.5 µM under setting [2].

As to `COc1c(C)c2c(c(O)c1C/C=C(\C)CCC(=O)Nc1nc3ccccc3s1)C(=O)OC2` [Compound 10, (E)-N-(Benzo[d]thiazol-2-yl)-6-(4-hydroxy-6-methoxy-7-methyl-3-oxo-1,3-dihydroisobenzofuran-5-yl)-4-methylhex-4-enamide], the IC50 was 89.9 µM under setting [1] and 90 µM under setting [2].

In the case of `COc1ccc2nc(NC(=O)CC/C(C)=C/Cc3c(O)c4c(c(C)c3OC)COC4=O)sc2c1` [Compound 11, (E)-6-(4-Hydroxy-6-methoxy-7-methyl-3-oxo-1,3-dihydroisobenzofuran-5-yl)-N-(6-methoxybenzo[d]thiazol-2-yl)-4-methylhex-4-enamide], the IC50 under setting [3] was 156 µM, the IC50 under setting [1] was 156 µM and the IC50 under setting [2] turned out to be 156 µM.

Regarding `COc1c(C)c2c(c(O)c1C/C=C(\C)CCC(=O)Nc1nc3c(s1)CCCC3)C(=O)OC2` [Compound 12, (E)-6-(4-Hydroxy-6-methoxy-7-methyl-3-oxo-1,3-dihydroisobenzofuran-5-yl)-4-methyl-N-(4,5,6,7-tetrahydrobenzo[d]thiazol-2-yl)hex-4-enamide], the IC50 under setting [2] was determined as 61.2 µM.

Turning to `COc1c(C)c2c(c(O)c1C/C=C(\C)CCC(=O)Nc1nc3c(s1)CCCCC3)C(=O)OC2` [Compound 13, (E)-6-(4-Hydroxy-6-methoxy-7-methyl-3-oxo-1,3-dihydroisobenzofuran-5-yl)-4-methyl-N-(5,6,7,8-tetrahydro-4H-cyclohepta[d]thiazol-2-yl)hex-4-enamide], the IC50 under setting [2] came out at 25 µM.

Turning to `COc1c(C)c2c(c(O)c1C/C=C(\C)CCC(=O)Nc1nc3c(s1)CCC3)C(=O)OC2` [Compound 14, (E)-N-(5,6-Dihydro-4H-cyclopenta[d]thiazol-2-yl)-6-(4-hydroxy-6-methoxy-7-methyl-3-oxo-1,3-dihydroisobenzofuran-5-yl)-4-methylhex-4-enamide], under setting [2], the IC50 was determined as 31.2 µM.

Consider `COc1c(C)c2c(c(OC)c1C/C=C(\C)CCC(=O)Nc1nccs1)C(=O)OC2` [Compound 15, (E)-6-(4,6-Dimethoxy-7-methyl-3-oxo-1,3-dihydroisobenzofuran-5-yl)-4-methyl-N-(thiazol-2-yl)hex-4-enamide], for which, under setting [2], the IC50 turned out to be 96.3 µM.

For the compound `COc1c(C)c2c(c(OC)c1C/C=C(\C)CCC(=O)Nc1ncc(C)s1)C(=O)OC2` [Compound 16, (E)-6-(4,6-Dimethoxy-7-methyl-3-oxo-1,3-dihydroisobenzofuran-5-yl)-4-methyl-N-(5-methylthiazol-2-yl)hex-4-enamide], the IC50 under setting [2] was 90 µM.
